Patent publication US20250243488A1, “METHODS OF MODULATING PROGRANULIN EXPRESSION USING ANTISENSE OLIGONUCLEOTIDES TARGETING REGULATORY RNAS” (Camp4 Therapeutics Corporation, priority 2022, published 2025)
Oligonucleotides are written 5' to 3', each unit as a sugar letter and its base; * is a phosphorothioate linkage, no mark a phosphodiester; rarer units and linkages stand in square brackets, end groups in braces. Plain capitals give the bases only. e = 2'-O-(2-methoxyethyl) (MOE); l = locked nucleic acid (LNA); [5mC] = 5-methylcytosine; d = 2'-deoxy (DNA)

Test system: GRN mRNA
Assay: GRN mRNA qPCR in SK-N-AS cells transfected with ASOs
Format: cell-based, human
Conditions: SK-N-AS; for hit identification (GRN mRNA dose escalation): 3.75 nM to 120 nM; for hGRN mRNA FC / 120 nM FC (GRN mRNA): 120 nM
In short: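 Fold change in GRN mRNA, by qPCR with GAPDH/PPIA housekeeping normalization, referenced to steric non-targeting control ASO(s) such as CO-1589. ASOs were transfected into SK-N-AS neuroblastoma cells in dose titrations (20 to 160 nM initially). Cells were harvested 48 hours post-transfection.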

[1] = Table 9, 48 hours post-transfection, normalized to CO-1589
[2] = Table 10, 48 hours, normalized to CO-1589
[3] = Table 13, normalized to CO-1589
[4] = Table 12, normalized to CO-1589
[5] = Table 11, 48 hours, normalized to CO-1589
[6] = Table 3, normalized to CO-3772 and CO-1589 (sNTC1)

Substance: CO-4619: ASO designed to target intergenic enhancers (eRNA) (antisense eT*eG*eA*eT*eA*eT*eA*eG*eA*eG*eA*eT*e[5mC]*eT*eG*e[5mC]*eA*eG*e[5mC]*e[5mC])
- hit identification (GRN mRNA dose escalation) (48 hours): initial hits
- hGRN mRNA FC [1]: 1.3 FC
- 3.75 nM FC (GRN mRNA) [2]: 1.0 FC
- 7.5 nM FC (GRN mRNA) [2]: 1.1 FC
- 15 nM FC (GRN mRNA) [2]: 1.3 FC
- 30 nM FC (GRN mRNA) [2]: 1.2 FC
- 60 nM FC (GRN mRNA) [2]: 1.2 FC
- 120 nM FC (GRN mRNA) [2]: 1.6 FC

Substance: CO-6412: ASO based on parent ASOs CO-4363 and CO-4364 (antisense eG*eG*eA*e[5mC]*eT*dT*dG*dG*dG*dA*dG*dT*dG*dG*dT*dG*eA*e[5mC]*eT*eG*eA)
- 30 nM FC (GRN mRNA) [3]: 1.0 FC
- 60 nM FC (GRN mRNA) [3]: 0.8 FC
- 120 nM FC (GRN mRNA) [3]: 0.9 FC

Substance: CO-4632: ASO designed to target intergenic enhancers (eRNA) (antisense eT*eG*e[5mC]*eT*eA*eT*eG*e[5mC]*eA*eT*eT*eG*eA*eG*eT*eT*eT*eT*e[5mC]*e[5mC])
- hGRN mRNA FC [1]: 1.1 FC

Substance: CO-4593: ASO designed to target intergenic enhancers (eRNA) (antisense eT*eT*eT*eT*eG*e[5mC]*e[5mC]*e[5mC]*eA*eG*e[5mC]*eG*e[5mC]*e[5mC]*e[5mC]*e[5mC]*eT*eT*eT*eA)
- hGRN mRNA FC [1]: 0.8 FC

Substance: CO-4602: ASO designed to target intergenic enhancers (eRNA) (antisense eT*eA*e[5mC]*eT*e[5mC]*e[5mC]*eT*eA*eG*e[5mC]*e[5mC]*eT*eG*e[5mC]*eG*e[5mC]*e[5mC]*eT*eT*eT)
- hGRN mRNA FC [1]: 1.2 FC

Substance: CO-6423: ASO based on parent ASOs CO-4363 and CO-4364 (eG*eG*eA*e[5mC]*lT*eT*eG*eG*eG*lA*eG*eT*eG*eG*lT*eG*eA*e[5mC]*eT*lG*eA*eA*e[5mC])
- 30 nM FC (GRN mRNA) [3]: 1.2 FC
- 60 nM FC (GRN mRNA) [3]: 2.6 FC
- 120 nM FC (GRN mRNA) [3]: 2.8 FC

Substance: CO-6521: ASO based on parent ASO CO-3462 (antisense eT*eA*eG*eG*eA*eG*eA*eA*eT*e[5mC]eGe[5mC]eTeTeTeGeGeG*eA*eG)
- 30 nM FC (GRN mRNA) [4]: 1.1 FC
- 60 nM FC (GRN mRNA) [4]: 1.2 FC
- 120 nM FC (GRN mRNA) [4]: 1.1 FC

Substance: CO-4624: ASO designed to target intergenic enhancers (eRNA) (antisense eG*eT*e[5mC]*eA*eG*eA*e[5mC]*eT*eG*eT*e[5mC]*e[5mC]*eT*eA*e[5mC]*eA*e[5mC]*e[5mC]*eT*eT)
- hGRN mRNA FC [1]: 1.3 FC

Substance: CO-6381: ASO based on parent ASO CO-3462 (antisense eT*eG*eA*eT*e[5mC]*eA*eG*e[5mC]*eT*eT*eG*eG*eG*e[5mC]*eG*eA*e[5mC]*eT*eG*eA)
- 30 nM FC (GRN mRNA) [4]: 0.8 FC
- 60 nM FC (GRN mRNA) [4]: 0.7 FC
- 120 nM FC (GRN mRNA) [4]: 1.0 FC

Substance: CO-4596: ASO designed to target intergenic enhancers (eRNA) (antisense e[5mC]*eA*eA*e[5mC]*eT*eA*eT*e[5mC]*eA*eG*eT*e[5mC]*eA*eA*eG*eG*eT*e[5mC]*eG*eG)
- hGRN mRNA FC [1]: 1.0 FC

Substance: CO-6380: ASO based on parent ASO CO-3462 (antisense eA*eA*eA*eA*e[5mC]*eA*eA*eA*e[5mC]*eA*e[5mC]*eA*e[5mC]*eA*eA*eG*eT*e[5mC]*e[5mC]*eG)
- 30 nM FC (GRN mRNA) [4]: 0.8 FC
- 60 nM FC (GRN mRNA) [4]: 0.8 FC
- 120 nM FC (GRN mRNA) [4]: 0.8 FC

Substance: CO-4609: ASO designed to target intergenic enhancers (eRNA) (antisense e[5mC]*e[5mC]*eA*eA*eT*eA*eA*eA*eG*e[5mC]*e[5mC]*eT*eT*eG*eG*eG*eT*eG*e[5mC]*e[5mC])
- hGRN mRNA FC [1]: 1.2 FC

Substance: CO-6413: ASO based on parent ASOs CO-4363 and CO-4364 (antisense eG*eG*eA*e[5mC]*eT*dT*dG*dG*eG*dA*dG*dT*eG*dG*dT*dG*eA*e[5mC]*eT*eG*eA)
- 30 nM FC (GRN mRNA) [3]: 1.0 FC
- 60 nM FC (GRN mRNA) [3]: 0.6 FC
- 120 nM FC (GRN mRNA) [3]: 0.7 FC

Substance: CO-6449: ASO designed to target an intragenic enhancer RNA (eRNA) (eG*eT*e[5mC]*e[5mC]*eA*eG*e[5mC]*eT*e[5mC]*eG*eG*eT*e[5mC]*eA*eT*eG*eT*eG*eT*e[5mC])
- hGRN mRNA FC [5]: 1.1 FC

Substance: CO-6428: ASO based on parent ASOs CO-4363 and CO-4364 (eG*eG*eG*eA*e[5mC]*eT*eT*eG*eG*eG*eA*eG*eT*eG*eG*eT*eG*eA*e[5mC]*eT*eG*eA*eA*e[5mC]*e[5mC]*eT)
- 30 nM FC (GRN mRNA) [3]: 1.1 FC
- 60 nM FC (GRN mRNA) [3]: 1.4 FC
- 120 nM FC (GRN mRNA) [3]: 1.0 FC

Substance: CO-6445: ASO designed to target an intragenic enhancer RNA (eRNA) (eG*eT*eG*eG*eG*eA*eA*eG*eT*eA*eT*eG*eG*e[5mC]*eT*eG*e[5mC]*eT*eG*e[5mC])
- hGRN mRNA FC [5]: 1.3 FC

Substance: CO-6418: ASO based on parent ASOs CO-4363 and CO-4364 (eG*eG*eA*e[5mC]*eT*lT*eG*eG*eG*eA*lG*eT*eG*eG*eT*lG*eA*e[5mC]*eT*eG*eA)
- 30 nM FC (GRN mRNA) [3]: 1.6 FC
- 60 nM FC (GRN mRNA) [3]: 1.6 FC
- 120 nM FC (GRN mRNA) [3]: 1.9 FC

Substance: CO-4357: LNA/PS modified ASO based on CO-3423 (antisense eG*eG*eA*e[5mC]*lT*eT*eG*eG*lG*eA*eG*eT*lG*eG*eT*eG*lA*e[5mC]*eT*eG)
- 30 nM FC (GRN mRNA) [6]: 1.5 FC
- 60 nM FC (GRN mRNA) [6]: 1.7 FC
- 120 nM FC (GRN mRNA) [6]: 2.4 FC

Substance: CO-6390: ASO based on parent ASO CO-3462 (antisense eT*eA*eG*eG*lA*dG*dA*dA*lT*d[5mC]*dG*d[5mC]*lT*dT*dT*eG*lG*eG*eA*eG)
- 30 nM FC (GRN mRNA) [4]: 1.3 FC
- 60 nM FC (GRN mRNA) [4]: 1.3 FC
- 120 nM FC (GRN mRNA) [4]: 1.5 FC

Substance: CO-4613: ASO designed to target intergenic enhancers (eRNA) (antisense eA*eT*e[5mC]*eA*eA*eG*eG*eG*eT*eT*eT*eG*eG*e[5mC]*eG*eT*eT*eT*eA*eG)
- hit identification (GRN mRNA dose escalation) (48 hours): initial hits
- hGRN mRNA FC [1]: 1.6 FC
- 3.75 nM FC (GRN mRNA) [2]: 1.0 FC
- 7.5 nM FC (GRN mRNA) [2]: 1.1 FC
- 15 nM FC (GRN mRNA) [2]: 1.2 FC
- 30 nM FC (GRN mRNA) [2]: 1.1 FC
- 60 nM FC (GRN mRNA) [2]: 1.2 FC
- 120 nM FC (GRN mRNA) [2]: 1.4 FC

Substance: CO-4630: ASO designed to target intergenic enhancers (eRNA) (antisense eG*eT*e[5mC]*eT*eT*e[5mC]*eA*eA*eG*eA*eA*e[5mC]*eT*eT*eT*eA*e[5mC]*e[5mC]*eG*eA)
- hGRN mRNA FC [1]: 1.0 FC

Substance: CO-6442: ASO designed to target an intragenic enhancer RNA (eRNA) (e[5mC]*eT*eG*eG*eG*eA*eG*e[5mC]*e[5mC]*eT*eG*eG*e[5mC]*eT*eG*eA*eT*eG*e[5mC]*eA)
- hGRN mRNA FC [5]: 1.2 FC

Substance: CO-6385: ASO based on parent ASO CO-3462 (antisense e[5mC]*eG*eG*eT*eA*eG*eG*eA*eG*eA*eA*eT*e[5mC]*eG*e[5mC]*eT*eT*eT*eG*eG)
- 30 nM FC (GRN mRNA) [4]: 1.1 FC
- 60 nM FC (GRN mRNA) [4]: 1.2 FC
- 120 nM FC (GRN mRNA) [4]: 1.3 FC

Substance: CO-4617: ASO designed to target intergenic enhancers (eRNA) (antisense eG*eG*eA*eG*eA*eT*eA*eG*eG*eG*eT*e[5mC]*eA*e[5mC]*eG*eT*eA*e[5mC]*eT*eT)
- hGRN mRNA FC [1]: 1.2 FC

Substance: CO-4637: ASO designed to target intergenic enhancers (eRNA) (antisense eT*eA*eA*eG*eG*eT*eG*eT*eA*eG*eG*eA*e[5mC]*eA*eG*eT*e[5mC]*eT*eG*eA)
- hit identification (GRN mRNA dose escalation) (48 hours): initial hits
- hGRN mRNA FC [1]: 0.9 FC
- 3.75 nM FC (GRN mRNA) [2]: 1.1 FC
- 7.5 nM FC (GRN mRNA) [2]: 1.1 FC
- 15 nM FC (GRN mRNA) [2]: 1.2 FC
- 30 nM FC (GRN mRNA) [2]: 1.1 FC
- 60 nM FC (GRN mRNA) [2]: 1.2 FC
- 120 nM FC (GRN mRNA) [2]: 1.3 FC

Substance: CO-6517: ASO based on parent ASO CO-3462 (antisense eT*eA*eGeGeAeGeAeAeTe[5mC]eGe[5mC]eTeTeTeGeG*eG*eA*eG)
- 30 nM FC (GRN mRNA) [4]: 1.2 FC
- 60 nM FC (GRN mRNA) [4]: 2.3 FC
- 120 nM FC (GRN mRNA) [4]: 2.0 FC

Substance: CO-6448: ASO designed to target an intragenic enhancer RNA (eRNA) (eT*e[5mC]*e[5mC]*e[5mC]*eG*eG*eT*eG*e[5mC]*e[5mC]*e[5mC]*eT*eG*eA*eT*eG*eG*eT*eT*e[5mC])
- hGRN mRNA FC [5]: 1.1 FC

Substance: CO-6422: ASO based on parent ASOs CO-4363 and CO-4364 (eG*eG*eA*l[5mC]*eT*eT*eG*lG*eG*eA*eG*lT*eG*eG*eT*lG*eA*e[5mC]*eT*lG*eA*eA*e[5mC])
- 30 nM FC (GRN mRNA) [3]: 1.9 FC
- 60 nM FC (GRN mRNA) [3]: 2.0 FC
- 120 nM FC (GRN mRNA) [3]: 2.1 FC

Substance: CO-6443: ASO designed to target an intragenic enhancer RNA (eRNA) (eG*e[5mC]*e[5mC]*e[5mC]*eT*eG*eA*e[5mC]*eA*e[5mC]*eG*e[5mC]*eA*e[5mC]*e[5mC]*eT*eT*eA*e[5mC]*eA)
- hGRN mRNA FC [5]: 1.0 FC
